Source: patent US6965033B2, “Bisamidate phosphonate prodrugs” (Metabasis Therapeutics, Inc., priority 1999, dated 2005)

Experiments:
[1] = system: human hepatocytes; experiment: Metabolism of 50.6 in Human Hepatocytes; assay type: in vitro ADME; conditions: 10 μM
Description: Cryopreserved human hepatocytes were obtained from In Vitro Technologies and thawed according to the vendor's recommendations. Cells were incubated at 37° C. in a Krebs-bicarbonate based buffer containing 50.6 at 10 μM. At various time points over the course of 4 hours, aliquots of cells were removed and extracted by addition of methanol to 60%. Cell extracts were clarified by centrifugation and analyzed by reverse phase HPLC with use of a Beckman Ultrasphere ODS column (4.6×150 mm) equipped with an Alltech All-Guard column. […]. Disappearance of 50.6 was rapid and essentially complete within 60 minutes of incubation. […] The initial rate of 3.1 formation was 24 pmol/million cells/minute. […]

[2] = system: ZDF rat; experiment: Chronic Oral Efficacy in the ZDF Rat; assay type: in vivo
Description: Methods: ZDF rats (10 weeks of age) were maintained either on powdered Purina 5008 rat chow (n=10) or the same powdered chow supplemented with 0.4% 50.6 (n=8). Blood glucose measurements were made as described in Example E at baseline and at weekly intervals thereafter for a total of 3 weeks. Statistical analysis was performed using the Student's t test. Means±standard error of the means are shown.

[3] = Metabolism of 50.6 in human plasma; assay type: in vitro ADME; conditions: 100 μM
Description: (§1) The metabolism of 50.6 was evaluated in rat, monkey, and human plasma by reverse phase HPLC with use of a Beckman Ultrasphere ODS column (4.6×150 mm) equipped with an Alltech All-Guard column. The column was equilibrated with 20 mM potassium phosphate, pH 6.2 and eluted with a linear gradient of 0-60% acetonitrile over 20 minutes at a flow rate of 1.5 mL/min and at a temperature of 40° C. UV absorbance was monitored at 300 nm. […] The metabolite formed in rat plasma was collected and subjected to mass spectrum analysis at Mass Consortium Corporation (San Diego, Calif.). […] This molecular weight is consistent with that of a monophosphoramidate intermediate. This intermediate is likely formed via a reaction mechanism in which the prodrug first undergoes full de-esterification followed by intramolecular, hydrolytic cleavage of one of the amino acyl substituents. Formation of the postulated monophosphoramidate intermediate was confirmed following the synthesis of a synthetic standard, Compound C. The standard had the identical HPLC and UV profile as the metabolite formed in plasma samples.

[4] = Metabolism of 50.6 in monkey plasma; assay type: in vitro ADME; conditions: 100 μM
Description: as §1

[5] = system: Human Liver Phosphoramidase; experiment: Structure Activity Relationship of Human Liver Phosphoramidase (human liver homogenate); assay type: in vitro ADME; conditions: pH 7.4
Description: Human liver, purchased from the Anatomic Gift Foundation (Laurel, Md.), was homogenized in Krebs-bicarbonate buffer and clarified by a slow-speed centrifugation. Prodrug metabolism was evaluated in reaction mixtures containing human liver homogenate (4 mgs protein), 50 mM Tris-HCl, pH 7.4, 10 mM MgCl2, and 10 mM dithiothreitol. At various time intervals over the course of 2 hours, aliquots were removed from the reaction mixtures and deproteinated by addition of methanol to 60%. Following clarification by centrifugation, metabolites were analyzed by reverse phase HPLC with use of a Beckman Ultrasphere ODS column (4.6×150 mm) equipped with an Alltech All-Guard column. The column was equilibrated with 20 mM potassium phosphate, pH 6.2 and eluted with a linear gradient of 0-60% acetonitrile over 20 minutes at a flow rate of 1.5 mL/min and at a temperature of 40° C. UV absorbance was monitored at 300 nm. Most of the prodrugs evaluated were metabolized via a non-rate limiting, esterase-catalyzed step to their monophosphoramidate form within 5 minutes of incubation. The rate of phosphonic acid appearance was therefore essentially a reflection of the rate of the final […] cleavage step. Results for representative prodrugs for which the esterase-catalyzed step was non-rate limiting are shown below: […]

[6] = system: Zucker Diabetic Fatty (ZDF rat); experiment: Acute Oral Efficacy in the ZDF Rat; assay type: in vivo
Description: Methods: ZDF rats were purchased from Genetics Inc (Indianapolis, Ind.) at 8 weeks of age. Animals were maintained under standard vivarium conditions and provided with Purina 5008 chow and water ad libitum. At 10-12 weeks of age, rats with blood glucose levels>500 mg/dl were selected and dosed orally either with vehicle (PEG 400), or prodrug (60 mg/kg). Blood glucose levels were monitored at regular intervals for 6 hours following dosing. Blood samples were taken from tail vein nicks and analyzed by means of a HemoCue glucose analyzer (Hemocue, Mission Viejo, Calif.). Statistical analysis was performed using the Student's t test. Means±standard error of the means are shown.

[7] = Metabolism of 50.6 in rat plasma; assay type: in vitro ADME; conditions: 100 μM
Description: as §1

CCOC(=O)[C@H](C)NP(=O)(N[C@@H](C)C(=O)OCC)c1ccc(-c2nc(N)sc2CC(C)C)o1 [Compound 50.6, 2-Amino-5-isobutyl-4-{2-[5-(N,N′-bis((S)-1-ethoxycarbonyl)ethyl)phosphonamido]furanyl}thiazole]
time to essentially complete disappearance ([1]; cryopreserved human hepatocytes, 37° C.): ≤ 60 min
initial rate of 3.1 formation ([1]; human hepatocytes): 24 pmol/million cells/minute
metabolites detected ([1]; human hepatocytes): Compound C and 3.1
Blood glucose, t21 days ([2]; 21 days on chow supplemented with 0.4% drug): 436 ± 41 mg/dL
Blood Glucose, Tbaseline ([2]; baseline, chow with 0.4% drug group): 674 ± 20 mg/dL
metabolites formed in plasma [3]: single metabolite
metabolites formed in plasma [4]: single metabolite
Phosphoramidase Activity (Rate of 3.1 or 3.58 production, nmoles/mn/mg liver protein) [5]: 0.022 nmoles/mn/mg liver protein
Blood Glucose, T6h ([6]; 6 h after 60 mg/kg oral): 406 ± 12 mg/dL
Blood Glucose, % Change ([6]; baseline to 6 h, 60 mg/kg oral): −25%
Blood Glucose, Tbaseline ([6]; baseline, 60 mg/kg oral group): 544 ± 25 mg/dL
metabolites formed in plasma [7]: single metabolite
